From patent publication US20040254197A1, “Injections for eye tissues containing drug bonded to polyethlene glycol” (SANTEN PHARMACEUTICAL CO., LTD., priority 2001, published 2004)

Legend:
[1] = tested on: krypton laser-induced choroidal neovascularization; experiment: Effects of subconjunctivally administered betamethasone-PEG conjugate on krypton laser-induced choroidal neovascularization in rats; type: in vivo; details: single subconjunctival injection 50 μl (BM-PEG 40 mg/ml, BP 2.8 mg/ml), 14th day after photocoagulation, vehicle 71.9%
Experimental: 1) A one ml/kg mixed solution containing an aqueous ketamine hydrochloride solution (50 mg/ml) and an aqueous xylazine hydrochloride solution (50 mg/ml) in a ratio of 7:1 was administered intramuscularly to rats to anesthetize them systemically.
2) A 0.5% tropicamide-0.5% phenylephrine hydrochloride solution was instilled into the eyes to cause mydriasis, and then photocoagulation was performed with a krypton laser photocoagulation apparatus (red) under coagulation conditions of spot size of 100 μm, output of 100 mW and coagulation time of 0.1 sec.
3) Cover glass for observing tissues was used as a contact lens, the photocoagulation was carried out in a posterior pole portion of ocular fundus at eight spots per eye sparsely avoiding thick retinal vessels. The photocoagulation was carried out focusing on the retinal posterior portion in order to cut a Bruch's membrane. After the photocoagulation, the ocular fundus was photographed. […]
6) In the fluorescein fundus angiography, a photocoagulation site where fluorescence diapedesis was not observed was judged as negative, and a photocoagulation site where apparent fluorescence diapedesis was observed was judged as positive. When there are two photocoagulation sites where a little fluorescence diapedesis was observed, they were judged as positive. Each neovascularization exhibition rate was calculated according to the following equation. […]

[2] = Intraocular pharmacokinetic tests by fluorophotometry in rabbits after injection into the vitreous body; type: in vivo, white rabbits; details: rabbit, intravitreous injection
Experimental: Intraocular pharmacokinetic tests by fluorophotometry in rabbits It is difficult in terms of measurement techniques to actually trace transfer of slight amounts of tissues using the drug-PEG conjugate prepared above. Accordingly, fluorescein, which has fluorescence and can be measured with high sensitivity, was used as a model drug, a fluorescein-PEG conjugate (hereinafter referred to as “FL-PEG”) was synthesized, and intraocular pharmacokinetics tests were performed. Fluorescein sodium (hereinafter referred to as “FL”) was used as a comparative substance.
A 2.6% sterilized glycerin solution (10 ml) was added to FL-PEG (18 mg), and this liquid was stirred to dissolve FL-PEG to prepare an injection. A 10 μg/ml injection containing FL was prepared in the similar manner.
1) A mixed solution containing an aqueous ketamine hydrochloride solution (50 mg/ml) and an aqueous xylazine hydrochloride (50 mg/ml) in a ratio of 7:3 was administered intramuscularly to white rabbits to anesthetize.
2) A tropicamide (0.5%)/phenylephrine hydrochloride (0.5%) ophthalmic solution was instilled into eyes to cause mydriasis in the eyes.
3) The eyes were anesthetized with an oxybuprocaine hydrochloride (0.5%) ophthalmic solution.
4) The above-mentioned FL-PEG or FL liquid preparation was injected into the center of a vitreous body of one eye from an ocular pars plana in an amount of […] respectively with a syringe equipped with a 30 G needle.
5) Intraocular fluorescence intensity was measured with a fluorophotometry apparatus with the laps of time immediately after the administration to the vitreous body and at 1, 2, 4, 7, 15, 18, 23, 28, 35, 42, 49 and 56 days. A calibration curves were prepared, changes in concentration in the vitreous body and a retina were determined. Next, respective half-lives were calculated from the changes in concentration by a moment method. The above-mentioned operation 2) was carried out before the intraocular fluorescence intensity was measured.
The numerical values in the table are the average of three samples respectively. The half-life of FL-PEG in the vitreous body was calculated using measured values on forth to 28th day. […] The half-life of FL in the vitreous body was calculated using measured values immediately after the administration and on first day after the administration.

Row | Half-life in vitreous body ([2]; fluorophotometry, moment method, average of three samples) | half-life ([2]; white, vitreous body, other: injection into the vitreous body (intravitreal), 1 µg/eye, fluorophotometry, moment method, average of three samples) [h] | SMILES | Neovascularization exhibition rate (%) [1] [%] | Detection in the retina (changes in concentration, FIG. 2) ([2]; followed for 56 days) | Detection in the vitreous body (changes in concentration, FIG. 1) ([2]; followed for 56 days)
1 |  |  | C[C@H]1C[C@H]2[C@@H]3CCC4=CC(=O)C=C[C@]4(C)[C@@]3(F)[C@@H](O)C[C@]2(C)[C@@]1(O)C(=O)COP(=O)(O)O [BP, Betamethasone phosphate] | 50.0 |  | 
2 | less than four | < 4 | O=C1OC2(c3ccc(O)cc3Oc3cc(O)ccc32)c2ccccc21 [FL, Fluorescein sodium] |  | detected only on first day after the administration | not detected on second day after the administration or later
